Test results as given in US11827628B2, “Compositions and methods for inhibition of the JAK pathway” (Rigel Pharmaceuticals, Inc., priority 2005, dated 2023).

system: Primary human T-cells; experiment: Primary Human T-Cell Proliferation Assay Stimulated with IL-2 (CellTiter-Glo); format: cell-based; conditions: Homo sapiens, T-cell, primary human T-cells stimulated with IL-2, proliferation; read-out: IC50, Example 42
Summary of the method: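 Peripheral blood T-cells pre-activated with anti-CD3/anti-CD28 and IL-2 were washed free of IL-2, then cultured with compound plus IL-2 for 72 hours at 37° C, duplicate wells. Viability read as ATP by CellTiter-Glo luminescence; IC50 reported.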

Row | Structure (SMILES) | IC50 [nM]
1 | Cc1ccc(Nc2ncc(F)c(Nc3ccc4sccc4c3)n2)cc1S(N)(=O)=O [VII-57, N2-(3-Aminosulfonyl-4-methylphenyl)-N4-(benzothiophen-5-yl)-5-fluoro-2,4-pyrimidinediamine] | 818
2 | NS(=O)(=O)c1ccc(Nc2ncc(F)c(Nc3ccc(CCCO)cc3)n2)cc1 [VI-85, N2-(4-Aminosulfonylphenyl)-5-fluoro-N4-[4-(3-hydroxypropyl)phenyl]-2,4-pyrimidinediamine] | 762
3 | C#CCn1ccc2cc(Nc3nc(Nc4cccc(S(N)(=O)=O)c4)ncc3F)ccc21 [IX-2, N2-(3-Aminosulfonylphenyl)-5-fluoro-N4-[1-(propyn-3-yl)indol-5-yl]-2,4-pyrimidinediamine] | 282
4 | N#CCN1C(=O)CSc2ccc(Nc3nc(Nc4cccc(S(N)(=O)=O)c4)ncc3F)cc21 [Compound V-12, N2-(3-Aminosulphonylphenyl)-5-fluoro-N4-(3-oxo-4-cyanomethyl-benzo[1,4]thiazin-6-yl)-2,4-pyrimidinediamine] | 957
5 | C#CCOC(=O)NCc1ccc(Nc2nc(Nc3cccc(S(N)(=O)=O)c3)ncc2F)cc1 [VI-74, N2-(3-Aminosulfonylphenyl)-5-fluoro-N4-{4-[(prop-2-ynyloxy)carbonylaminomethyl]phenyl}-2,4-pyrimidinediamine] | 348
